Literature values, collected in patent EP1165099B1, “ANGIOTENSIN II AND ANALOGS THEREOF FOR LIMITING SCAR AND ADHESION FORMATION” (UNIVERSITY OF SOUTHERN CALIFORNIA, priority 1999, dated 2006).

Tested on: AT2 receptor

Substance	affinity for AT2 than AT1 (ratio of affinity AT2 over AT1)	binding characteristics (experimental models of the cited literature)
Asp-Arg-Val-Tyr-Ile-His-Pro-Phe [AII]	100 times	–
Asp-Arg-Val-Tyr-Ile-Xaa-Pro-Phe [(p-NH2-Phe)6-AII]	–	comparable to AT2 antagonists
